Measured values from patent US8846698B2, “Pyrrolo[2,3-d]pyrimidine tropomysin-related kinase inhibitors” (Pfizer Limited, priority 2011, dated 2014).

These compounds were tested against TRKA (Homo sapiens (Human), UniProt P04629) (assay: Isolated TRK enzyme assay (HTRF KinEASE-TK), TRKA). Settings: read-out: Trka enzyme (IC50).
Assay type: biochemical

Sequence of TRKA (P04629 441-796): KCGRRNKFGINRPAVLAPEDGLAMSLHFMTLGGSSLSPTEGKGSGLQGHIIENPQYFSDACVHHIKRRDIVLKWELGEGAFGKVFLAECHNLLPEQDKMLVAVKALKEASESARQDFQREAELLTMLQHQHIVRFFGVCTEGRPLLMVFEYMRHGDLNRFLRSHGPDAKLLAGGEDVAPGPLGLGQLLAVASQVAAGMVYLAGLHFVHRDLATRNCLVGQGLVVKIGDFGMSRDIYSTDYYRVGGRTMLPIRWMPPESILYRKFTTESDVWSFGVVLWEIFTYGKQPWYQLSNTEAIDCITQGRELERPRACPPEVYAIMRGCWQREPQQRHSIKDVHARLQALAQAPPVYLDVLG

Row | Compound | IC50
1 | COCC(C)(C)n1cc(C(=O)c2cncc(NC(=O)Cc3ccc(Cl)cn3)c2)c2cncnc21 [Example 536, 2-(5-Chloro-pyridin-2-yl)-N-{5-[7-(2-methoxy-1,1-dimethyl-ethyl)-7H-pyrrolo[2,3-d]pyrimidine-5-carbonyl]-pyridin-3-yl}-acetamide] | 1.57 nM
2 | COCC(C)(C)n1cc(C(=O)c2cncc(NC(=O)Cc3ccc(F)cn3)c2)c2cncnc21 [Example 537, 2-(5-Fluoro-pyridin-2-yl)-N-{5-[7-(2-methoxy-1,1-dimethyl-ethyl)-7H-pyrrolo[2,3-d]pyrimidine-5-carbonyl]-pyridin-3-yl}-acetamide] | 10.6 nM
3 | COCC(C)(C)n1cc(C(=O)c2cncc(NC(=O)Cn3ccc(C4CC4)n3)c2)c2cncnc21 [Example 538, 2-(3-Cyclopropyl-pyrazol-1-yl)-N-{5-[7-(2-methoxy-1,1-dimethyl-ethyl)-7H-pyrrolo[2,3-d]pyrimidine-5-carbonyl]-pyridin-3-yl}-acetamide] | 1.51 nM
4 | COCC(C)(C)n1cc(C(=O)c2cncc(NC(=O)Cc3ccc(F)cc3)c2)c2cncnc21 [Example 539, 2-(4-Fluoro-phenyl)-N-{5-[7-(2-methoxy-1,1-dimethyl-ethyl)-7H-pyrrolo[2,3-d]pyrimidine-5-carbonyl]-pyridin-3-yl}-acetamide] | 4.08 nM
5 | CN(C(=O)Cc1ccc(F)cc1)c1cncc(C(=O)c2cn(C(C)(C)C)c3ncncc23)c1 [Example 540, N-[5-(7-tert-Butyl-7H-pyrrolo[2,3-d]pyrimidine-5-carbonyl)-pyridin-3-yl]-2-(4-fluoro-phenyl)-N-methyl-acetamide] | 153 nM
6 | CN(C(=O)Cc1ccc(Cl)cn1)c1cncc(C(=O)c2cn(C(C)(C)C)c3ncncc23)c1 [Example 543, N-[5-(7-tert-Butyl-7H-pyrrolo[2,3-d]pyrimidine-5-carbonyl)-pyridin-3-yl]-2-(5-chloro-pyridin-2-yl)-N-methyl-acetamide] | 50 nM
7 | CN(C(=O)Cc1ccc(Cl)cc1)c1cncc(C(=O)c2cn(C(C)(C)C)c3ncncc23)c1 [Example 544, N-[5-(7-tert-Butyl-7H-pyrrolo[2,3-d]pyrimidine-5-carbonyl)-pyridin-3-yl]-2-(4-chloro-phenyl)-N-methyl-acetamide] | 31.6 nM
8 | CC(C)(C)n1cc(C(=O)c2cncc(NC(=O)Cc3ccc(Cl)cc3)c2)c2cncnc21 [Example 545, N-[5-(7-tert-Butyl-7H-pyrrolo[2,3-d]pyrimidine-5-carbonyl)-pyridin-3-yl]-2-(4-chloro-phenyl)-acetamide] | 2.95 nM
9 | CC(C)(C)n1cc(C(=O)c2cncc(NC(=O)Cc3ccc(F)cc3)c2)c2cncnc21 [Example 546, N-[5-(7-tert-Butyl-7H-pyrrolo[2,3-d]pyrimidine-5-carbonyl)-pyridin-3-yl]-2-(4-fluoro-phenyl)-acetamide] | 5.34 nM
10 | COCC(C)(C)n1cc(C(=O)c2cncc(NC(=O)Cc3ccc(Cl)cn3)c2)c2cnc(N)nc21 [Example 547, N-{5-[2-Amino-7-(2-methoxy-1,1-dimethyl-ethyl)-7H-pyrrolo[2,3-d]pyrimidine-5-carbonyl]-pyridin-3-yl}-2-(5-chloro-pyridin-2-yl)-acetamide] | 3.88 nM
11 | COCC(C)(C)n1cc(C(=O)c2cncc(NC(=O)Cc3ccc(F)cn3)c2)c2cnc(N)nc21 [Example 548, N-{5-[2-Amino-7-(2-methoxy-1,1-dimethyl-ethyl)-7H-pyrrolo[2,3-d]pyrimidine-5-carbonyl]-pyridin-3-yl}-2-(5-fluoro-pyridin-2-yl)-acetamide] | 21.2 nM
12 | COCC(C)(C)n1cc(C(=O)c2cncc(NC(=O)Cn3ccc(C(F)(F)F)n3)c2)c2cnc(N)nc21 [Example 549, N-{5-[2-Amino-7-(2-methoxy-1,1-dimethyl-ethyl)-7H-pyrrolo[2,3-d]pyrimidine-5-carbonyl]-pyridin-3-yl}-2-(3-trifluoromethyl-pyrazol-1-yl)-acetamide] | 3.22 nM
13 | COCC(C)(C)n1cc(C(=O)c2cncc(NC(=O)Cn3cc(C(F)(F)F)nn3)c2)c2cnc(N)nc21 [Example 550, N-{5-[2-Amino-7-(2-methoxy-1,1-dimethyl-ethyl)-7H-pyrrolo[2,3-d]pyrimidine-5-carbonyl]-pyridin-3-yl}-2-(4-trifluoromethyl-[1,2,3]triazol-1-yl)-acetamide] | 16.1 nM
14 | COCC(C)(C)n1cc(C(=O)c2cncc(NC(=O)Cn3cc(C(F)(F)F)cn3)c2)c2cnc(N)nc21 [Example 551, N-{5-[2-Amino-7-(2-methoxy-1,1-dimethyl-ethyl)-7H-pyrrolo[2,3-d]pyrimidine-5-carbonyl]-pyridin-3-yl}-2-(4-trifluoromethyl-pyrazol-1-yl)-acetamide] | 2.78 nM
15 | COCC(C)(C)n1cc(C(=O)c2cncc(NC(=O)Cn3cc(C4CC4)nn3)c2)c2cnc(N)nc21 [Example 552, N-{5-[2-Amino-7-(2-methoxy-1,1-dimethyl-ethyl)-7H-pyrrolo[2,3-d]pyrimidine-5-carbonyl]-pyridin-3-yl}-2-(4-cyclopropyl-[1,2,3]triazol-1-yl)-acetamide] | 7.62 nM
16 | CC(C)(CO)n1cc(C(=O)c2cncc(NC(=O)Cn3cc4ccccc4n3)c2)c2cnc(N)nc21 [Example 553, N-{5-[2-Amino-7-(2-hydroxy-1,1-dimethyl-ethyl)-7H-pyrrolo[2,3-d]pyrimidine-5-carbonyl]-pyridin-3-yl}-2-indazol-2-yl-acetamide] | 4.4 nM
17 | CC(C)(CO)n1cc(C(=O)c2cncc(NC(=O)Cn3cnc4ccccc4c3=O)c2)c2cnc(N)nc21 [Example 554, N-{5-[2-Amino-7-(2-hydroxy-1,1-dimethyl-ethyl)-7H-pyrrolo[2,3-d]pyrimidine-5-carbonyl]-pyridin-3-yl}-2-(4-oxo-4H-quinazolin-3-yl)-acetamide] | 270 nM
18 | CC(C)(CO)n1cc(C(=O)c2cncc(NC(=O)Cc3ncc(F)cc3F)c2)c2cnc(N)nc21 [Example 555, N-{5-[2-Amino-7-(2-hydroxy-1,1-dimethyl-ethyl)-7H-pyrrolo[2,3-d]pyrimidine-5-carbonyl]-pyridin-3-yl}-2-(3,5-difluoro-pyridin-2-yl)-acetamide] | 150 nM
19 | Cc1ccc(CC(=O)Nc2cncc(C(=O)c3cn(C(C)(C)CO)c4nc(N)ncc34)c2)nc1 [Example 556, N-{5-[2-Amino-7-(2-hydroxy-1,1-dimethyl-ethyl)-7H-pyrrolo[2,3-d]pyrimidine-5-carbonyl]-pyridin-3-yl}-2-(5-methyl-pyridin-2-yl)-acetamide] | 3.16 nM
20 | CN(c1ccc(CC(=O)Nc2cncc(C(=O)c3cn(C(C)(C)CO)c4nc(N)ncc34)c2)cc1)S(C)(=O)=O [Example 557, N-(5-{[2-amino-7-(2-hydroxy-1,1-dimethylethyl)-7H-pyrrolo[2,3-d]pyrimidin-5-yl]carbonyl}pyridin-3-yl)-2-{4-[methyl(methylsulfonyl)amino]phenyl}-acetamide] | 9.47 nM
21 | CC(C)(CO)n1cc(C(=O)c2cncc(NC(=O)Cc3nc4ccccc4[nH]3)c2)c2cnc(N)nc21 [Example 558, N-{5-[2-Amino-7-(2-hydroxy-1,1-dimethyl-ethyl)-7H-pyrrolo[2,3-d]pyrimidine-5-carbonyl]-pyridin-3-yl}-2-(1H-benzoimidazol-2-yl)-acetamide] | 5.56 nM
22 | CC(C)(CO)n1cc(C(=O)c2cncc(NC(=O)Cn3cc(C(F)(F)F)ccc3=O)c2)c2cnc(N)nc21 [Example 559, N-{5-[2-Amino-7-(2-hydroxy-1,1-dimethyl-ethyl)-7H-pyrrolo[2,3-d]pyrimidine-5-carbonyl]-pyridin-3-yl}-2-(2-oxo-5-trifluoromethyl-2H-pyridin-1-yl)-acetamide] | 374 nM
23 | CC(C)(CO)n1cc(C(=O)c2cncc(NC(=O)Cc3ncc(Cl)cc3F)c2)c2cnc(N)nc21 [Example 560, N-{5-[2-Amino-7-(2-hydroxy-1,1-dimethyl-ethyl)-7H-pyrrolo[2,3-d]pyrimidine-5-carbonyl]-pyridin-3-yl}-2-(5-chloro-3-fluoro-pyridin-2-yl)-acetamide] | 1610 nM
24 | CCOc1ccc(CC(=O)Nc2cncc(C(=O)c3cn(C(C)(C)CO)c4nc(N)ncc34)c2)nc1 [Example 561, N-{5-[2-Amino-7-(2-hydroxy-1,1-dimethyl-ethyl)-7H-pyrrolo[2,3-d]pyrimidine-5-carbonyl]-pyridin-3-yl}-2-(5-ethoxy-pyridin-2-yl)-acetamide] | 112 nM
25 | CC(C)(CO)n1cc(C(=O)c2cncc(NC(=O)Cc3ccc(C(F)(F)F)cn3)c2)c2cnc(N)nc21 [Example 562, N-{5-[2-Amino-7-(2-hydroxy-1,1-dimethyl-ethyl)-7H-pyrrolo[2,3-d]pyrimidine-5-carbonyl]-pyridin-3-yl}-2-(5-trifluoromethyl-pyridin-2-yl)-acetamide] | 3.75 nM
26 | CC(C)(CO)n1cc(C(=O)c2cncc(NC(=O)Cn3cc(C(F)(F)F)cn3)c2)c2cnc(N)nc21 [Example 563, N-{5-[2-Amino-7-(2-hydroxy-1,1-dimethyl-ethyl)-7H-pyrrolo[2,3-d]pyrimidine-5-carbonyl]-pyridin-3-yl}-2-(4-trifluoromethyl-pyrazol-1-yl)-acetamide] | 3.11 nM
27 | CC(C)(CO)n1cc(C(=O)c2cncc(NC(=O)Cc3ccc(NS(C)(=O)=O)cc3)c2)c2cnc(N)nc21 [Example 564, N-{5-[2-Amino-7-(2-hydroxy-1,1-dimethyl-ethyl)-7H-pyrrolo[2,3-d]pyrimidine-5-carbonyl]-pyridin-3-yl}-2-(4-methanesulfonylamino-phenyl)-acetamide] | 1.57 nM
28 | CC(C)(CO)n1cc(C(=O)c2cncc(NC(=O)Cc3ccc(OC(F)F)cc3)c2)c2cnc(N)nc21 [Example 565, N-{5-[2-Amino-7-(2-hydroxy-1,1-dimethyl-ethyl)-7H-pyrrolo[2,3-d]pyrimidine-5-carbonyl]-pyridin-3-yl}-2-(4-difluoromethoxy-phenyl)-acetamide] | 17.9 nM
29 | CC(C)(CO)n1cc(C(=O)c2cncc(NC(=O)Cc3ccc(OC(F)(F)F)cc3)c2)c2cnc(N)nc21 [Example 567, N-{5-[2-Amino-7-(2-hydroxy-1,1-dimethyl-ethyl)-7H-pyrrolo[2,3-d]pyrimidine-5-carbonyl]-pyridin-3-yl}-2-(4-trifluoromethoxy-phenyl)-acetamide] | 20.8 nM
